Measurements taken from US11167005B2, “Peptides for treating Sjogren's syndrome” (YEDA RESEARCH AND DEVELOPMENT CO. LTD., priority 2017, dated 2021).
“Also recorded” adds a separate entry of the source.

How the values were obtained:
FOXP3 = FOXP3 gene expression in PBMCs of SS patients, real-time RT-PCR; format: cell-based, human
Protocol: (§1) 5×10^6/mL peripheral blood mononuclear cells (PBMCs) obtained from blood samples of rheumatoid arthritis (RA) patients, anti-phospholipid syndrome patients (APS) and SS patients were incubated in-vitro in: medium alone, medium containing 25 μg/mL hCDR1 (SEQ ID NO: 1), or medium containing 25 μg/mL of control scrambled peptide (SEQ ID NO: 2). Following 48 hours of incubation, cells were collected and mRNA was prepared from all samples. The expression of various genes was determined using real-time RT-PCR. The control peptide has the same amino acid residues as SEQ ID NO:1 in a scrambled order.
(§2) The effect of IDO inhibition on the expression of the suppressive master gene FOXP3, that is expressed on functional T regulatory cells, was tested.

IDO [1] = experiment: IDO gene expression in PBMCs of pSS patients, real-time RT-PCR; format: cell-based, human; details: for IDO gene expression on addition of recombinant cytokine to cultures of PBMCs with hCDR1: compared with hCDR1 alone (FIG. 3C)
Protocol: Following 48 hours of incubation, cells were collected and mRNA was prepared from all samples. The expression of various genes was determined using real-time RT-PCR.
Thereafter, RNA was extracted from the cells and gene expression was determined by real-time RT-PCR.
Since both IL-1β and IFN-α were reported to increase the production and expression of IDO, the effects of the addition of recombinant IL-1β or IFN-α to cultures of PBMCs with hCDR1 on IDO gene expression were further tested.
as §2

IL-1β = IL-1β gene expression in PBMCs of SS patients, real-time RT-PCR; format: cell-based, human; details: 25 μg/mL, 48 hours
Protocol: as §1

TNF-α = TNF-α gene expression in PBMCs of SS patients, real-time RT-PCR; format: cell-based, human; details: 25 μg/mL, 48 hours
Protocol: as §1

MX1 = MX1 gene expression in PBMCs of SS patients, real-time RT-PCR; format: cell-based, human; details: 25 μg/mL, 48 hours
Protocol: as §1

BLyS = BLyS gene expression in PBMCs of SS patients, real-time RT-PCR; format: cell-based, human; details: 25 μg/mL, 48 hours
Protocol: as §1

TGF-β = TGF-β gene expression in PBMCs of SS patients, real-time RT-PCR; format: cell-based, human; details: 48 hours; for expression of the gene for TGF-β: PBMCs isolated from SS patients, p=0.012 vs medium alone, p=0.028 vs control peptide
Protocol: as §1
PBMCs of patients with pSS were isolated and incubated in vitro for 48 hours in the presence of medium, hCDR1 (SEQ ID NO: 1) or a control scrambled peptide (SEQ ID NO: 2). Thereafter, RNA was extracted from the cells and gene expression was determined by real-time RT-PCR.

pathogenic cytokines [2] = experiment: Gene expression of pathogenic cytokines in PBMCs of rheumatoid arthritis patients; format: cell-based, human; details: 25 μg/mL, 48 hours, vs medium alone or control peptide (FIG. 1A)
Protocol: as §1

pathogenic cytokines [3] = experiment: Gene expression of pathogenic cytokines in PBMCs of anti-phospholipid syndrome patients; format: cell-based, human; details: 25 μg/mL, 48 hours, vs medium alone or control peptide (FIG. 1B)
Protocol: as §1

IDO [4] = experiment: IDO gene expression in PBMCs of subjects with RA; format: cell-based, human; details: 48 hours (FIG. 3B)
DNA = details: background statement; cited from earlier work
anti-DNA antibodies = details: background statement; cited from earlier work
SLE in murine models = details: cited from earlier work
[5] = Phase Ia and Ib clinical studies, humans; cited from earlier work
SLE patients = details: Phase II clinical trial in SLE patients (Urowitz et al. 2015); cited from earlier work
[6] = PBMCs of pSS patients, compared with hCDR1 alone (FIG. 3D)
[7] = vs medium alone and control scrambled peptide (FIG. 2)
[8] = FOXP3 gene, PBMCs of SS patients, 25 μg/mL, 48 hours
[9] = IDO gene, PBMCs of SS patients, 48 hours
[10] = TGF-β gene, PBMCs of SS patients

For `Cn1cc(C[C@@H](N)C(=O)O)c2ccccc21` [1 mT, 1-methyl-D-tryptophan, reference compound], the “FOXP3 expression on addition of 1 mT to PBMC cultures with hCDR1” value (FOXP3; [6]) was “significant down-regulation” and the “IDO gene expression on addition of 1 mT to PBMC cultures with hCDR1” value (IDO [1]; [6]) was “significant decrease”.

With “GYYWSWIRQPPGKGEEWIG [hCDR1, 19-amino-acid synthetic peptide based on CDR1 of the heavy chain of human anti-DNA mAb 16/6Id]” the “gene expression of IL-1β” value (IL-1β; [7]) was “significant reduction; also recorded: significant effects”, the “Modulation by hCDR1” value (IL-1β; IL-1β gene) was “Downregulation” and the “Percent responders exhibiting gene expression modulation, hCDR1 compared to control peptide” value (IL-1β; IL-1β gene) was “(61.5%)”. The “Percent responders exhibiting gene expression modulation, hCDR1 compared to medium” value (IL-1β; IL-1β gene) was “(86%)”, the “Responders/Total, hCDR1 compared to control peptide” value (IL-1β; IL-1β gene) was 8/13 and the “Responders/Total, hCDR1 compared to medium” value (IL-1β; IL-1β gene) was 12/14. The “gene expression of TNF-α” value (TNF-α; [7]) was “significant reduction; also recorded: significant effects”, the “Modulation by hCDR1” value (TNF-α; TNF-α gene) was “Downregulation” and the “Percent responders exhibiting gene expression modulation, hCDR1 compared to control peptide” value (TNF-α; TNF-α gene) was “(61.5%)”. For the same molecule, the “Percent responders exhibiting gene expression modulation, hCDR1 compared to medium” value (TNF-α; TNF-α gene) was “(78.5%)”, the “Responders/Total, hCDR1 compared to control peptide” value (TNF-α; TNF-α gene) was 8/13 and the “Responders/Total, hCDR1 compared to medium” value (TNF-α; TNF-α gene) was 11/14. The “gene expression of MX1” value (MX1; [7]) was “significant reduction; also recorded: significant effects”, the “Modulation by hCDR1” value (MX1; MX1 gene) was “Downregulation” and the “Percent responders exhibiting gene expression modulation, hCDR1 compared to control peptide” value (MX1; MX1 gene) was “(77%)”. For the same molecule, the “Percent responders exhibiting gene expression modulation, hCDR1 compared to medium” value (MX1; MX1 gene) was “(77%)”, the “Responders/Total, hCDR1 compared to control peptide” value (MX1; MX1 gene) was 10/13 and the “Responders/Total, hCDR1 compared to medium” value (MX1; MX1 gene) was 10/13. For the same molecule, the “gene expression of the BLyS gene” value (BLyS; [7]) was “significant reduction”, the “Modulation by hCDR1” value (BLyS; BLyS gene) was “Downregulation” and the “Percent responders exhibiting gene expression modulation, hCDR1 compared to control peptide” value (BLyS; BLyS gene) was “(50%)”. The “Percent responders exhibiting gene expression modulation, hCDR1 compared to medium” value (BLyS; BLyS gene) was “(70.5%)”, the “Responders/Total, hCDR1 compared to control peptide” value (BLyS; BLyS gene) was 6/12 and the “Responders/Total, hCDR1 compared to medium” value (BLyS; BLyS gene) was 12/17. For the same molecule, the “Modulation by hCDR1” value (FOXP3; [8]) was “Upregulation”, the “Percent responders exhibiting gene expression modulation, hCDR1 compared to control peptide” value (FOXP3; [8]) was “(58%)” and the “Percent responders exhibiting gene expression modulation, hCDR1 compared to medium” value (FOXP3; [8]) was “(75%)”. For the same molecule, the “Responders/Total, hCDR1 compared to control peptide” value (FOXP3; [8]) was 7/12, the “Responders/Total, hCDR1 compared to medium” value (FOXP3; [8]) was 12/16 and the “gene expression of the FOXP3 gene” value (FOXP3; PBMCs of SS patients, 25 μg/mL, 48 hours, vs medium alone and control scrambled peptide (FIG. 2)) was “significant increase”. For the same molecule, the “Modulation by hCDR1” value (IDO [1]; [9]) was “Upregulation”, the “Percent responders exhibiting gene expression modulation, hCDR1 compared to control peptide” value (IDO [1]; [9]) was “(69%)” and the “Percent responders exhibiting gene expression modulation, hCDR1 compared to medium” value (IDO [1]; [9]) was “(81%)”. For the same molecule, the “Responders/Total, hCDR1 compared to control peptide” value (IDO [1]; [9]) was 9/13, the “Responders/Total, hCDR1 compared to medium” value (IDO [1]; [9]) was 13/16 and the “expression of the IDO gene” value (IDO [1]; PBMCs of patients with pSS, 48 hours, vs medium alone or control peptide (FIG. 3A)) was “up-regulated significantly”. The “expression of the gene for TGF-β” value (TGF-β) was “significantly up-regulated”, the “Modulation by hCDR1” value (TGF-β; [10]) was “Upregulation” and the “Percent responders exhibiting gene expression modulation, hCDR1 compared to control peptide” value (TGF-β; [10]) was “(72.7%)”. The “Percent responders exhibiting gene expression modulation, hCDR1 compared to medium” value (TGF-β; [10]) was “(70.5%)”, the “Responders/Total, hCDR1 compared to control peptide” value (TGF-β; [10]) was 8/11 and the “Responders/Total, hCDR1 compared to medium” value (TGF-β; [10]) was 12/17. The “gene expression of pathogenic cytokines” value (pathogenic cytokines [2]) was “No significant effects; also recorded: non-significant effects”, the “gene expression of pathogenic cytokines” value (pathogenic cytokines [3]) was “No significant effects; also recorded: non-significant effects” and the “expression of IDO” value (IDO [4]) was “did not affect significantly”. The “binding to DNA” value (DNA) was “does not bind”, the “binding to anti-DNA antibodies” value (anti-DNA antibodies) was “does not bind” and the “serological and clinical disease manifestations of SLE” value (SLE in murine models) was “ameliorate serological and clinical disease manifestations”. For the same molecule, the safety and tolerability [5] was “safe and well tolerated” and the “effects on several parameters” value (SLE patients) was “beneficial effects”.

For IFN-α, the “IDO gene expression on addition of recombinant cytokine to cultures of PBMCs with hCDR1” value (IDO [1]) was “increased IDO gene expression to levels much higher”.

In the case of “IL-1β: recombinant IL-1β added to cultures of PBMCs with hCDR1”, the “IDO gene expression on addition of recombinant cytokine to cultures of PBMCs with hCDR1” value (IDO [1]) is reported as “increased IDO gene expression to levels much higher”.

With “SKGIPQYGGWPWEGWRYEI [control scrambled peptide, Control peptide, reference compound]” the “expression of the gene for TGF-β” value (TGF-β) was “not”.
